19 compounds from PubChem BioAssay AID248 (DTP/NCI, 2004) can be followed below.

The structures appear in SMILES notation. Where “and” joins values, the source holds several entries; their conditions need not be identical. Equal entries are not always repeated. Inconclusive results and toxic doses are left out.

The assay deals with L1210 leukemia ip in BDF1 mice, survival T/C. Briefly: NCI In Vivo Anticancer Drug Screen. Data for tumor model L1210 Leukemia (intraperitoneal) in B6D2F1 (BDF1) mice. The conditions noted are these: endpoint: mean survival time, higher = longer survival. In a few lines:
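Antitumor effect is assessed in tumor-bearing animals. Survival in the compound arm is compared with a vehicle-dosed control arm and expressed as their quotient.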

[1] abbreviates: dose: 100.0 mg/kg/injection, schedule: Q01DX009 (ip), vehicle: Klucel (hydroxypropylcellulose) (HPC).
Setting [2] is: dose: 100.0 mg/kg/injection, schedule: Q04DX003 (ip), vehicle: Klucel (hydroxypropylcellulose) (HPC).
Setting [3] is: dose: 200.0 mg/kg/injection, schedule: Q01DX009 (ip), vehicle: Klucel (hydroxypropylcellulose) (HPC).
Setting [4] is: dose: 200.0 mg/kg/injection, schedule: Q04DX003 (ip), vehicle: Klucel (hydroxypropylcellulose) (HPC).
The mark [5] stands for this setting: dose: 400.0 mg/kg/injection, schedule: Q01DX009 (ip), vehicle: Klucel (hydroxypropylcellulose) (HPC).
[6] abbreviates: dose: 400.0 mg/kg/injection, schedule: Q04DX003 (ip), vehicle: Klucel (hydroxypropylcellulose) (HPC).
Setting [7] is: dose: 50.0 mg/kg/injection, schedule: Q01DX009 (ip), vehicle: saline.
[8] abbreviates: dose: 25.0 mg/kg/injection, schedule: Q01DX001 (ip), vehicle: saline.
[9] abbreviates: dose: 50.0 mg/kg/injection, schedule: Q01DX001 (ip), vehicle: saline.
The mark [10] stands for this setting: dose: 100.0 mg/kg/injection, schedule: Q01DX001 (ip), vehicle: saline.
The mark [11] stands for this setting: dose: 12.5 mg/kg/injection, schedule: Q01DX009 (ip), vehicle: saline.
The mark [12] stands for this setting: dose: 100.0 mg/kg/injection, schedule: Q01DX009 (ip), vehicle: saline with Tween-80.
[13] abbreviates: dose: 25.0 mg/kg/injection, schedule: Q04DX002 (ip), vehicle: saline with Tween-80.
[14] abbreviates: dose: 100.0 mg/kg/injection, schedule: Q04DX002 (ip), vehicle: saline with Tween-80.

Take `CC1=CC(=O)OC(C)(C)C1`: the T/C by setting is: (dose: 100.0 mg/kg/injection, schedule: Q04DX003 (ip), vehicle: saline) 97 % of control; (dose: 200.0 mg/kg/injection, schedule: Q04DX003 (ip), vehicle: saline) 96 % of control; (dose: 400.0 mg/kg/injection, schedule: Q04DX003 (ip), vehicle: saline) 99 % of control.
In the case of `Cc1ccc(C)c(C2NC(=O)c3ccccc3N2)c1` (stereo not given), the T/C was 102 % of control under setting [1]; 106 % of control under setting [2]; 106 % of control under setting [3]; 90 % of control under setting [4]; 103 % of control under setting [5]; 93 % of control under setting [6].
With `CC[N+]([O-])(CC)CCNc1ccc(CO)c2sc3ccccc3c(=O)c12`, the T/C is 92 % of control under setting [7] and 121 % of control (dose: 100.0 mg/kg/injection, schedule: Q01DX009 (ip), vehicle: saline).
Turning to `CCN=C(NCC)c1ccc(NC(=O)Nc2ccc(NC(=O)Nc3ccc(C(=NCC)NCC)cc3)cc2)cc1`, the T/C runs as follows: (dose: 0.87 mg/kg/injection, schedule: Q01DX Z (ip), vehicle: water) 100 % of control; (dose: 1.75 mg/kg/injection, schedule: Q01DX Z (ip), vehicle: water) 100 % of control; (dose: 3.5 mg/kg/injection, schedule: Q01DX Z (ip), vehicle: water) 97 % of control; (dose: 7.0 mg/kg/injection, schedule: Q01DX Z (ip), vehicle: water) 103 % of control.
For `CC(=O)NC(CSSCC(NC(C)=O)C(=O)OC(C)=O)C(=O)O` (stereo not given), the T/C under setting [8] is 102 % of control, the T/C under setting [9] was 96 % of control and the T/C under setting [10] was 93 % of control.
As to `CCOc1ccc(NC(=O)C(C(C)N2CCCCC2)N2CCCCC2)cc1` (stereo not given), the T/C (dose: 12.5 mg/kg/injection, schedule: Q01DX001 (ip), vehicle: saline) was 94 % of control; the T/C under setting [11] was 95 % of control; the T/C (dose: 12.5 mg/kg/injection, schedule: Q04DX003 (ip), vehicle: saline) was 97 % of control; the T/C under setting [8] was 95 % of control; the T/C (dose: 25.0 mg/kg/injection, schedule: Q01DX009 (ip), vehicle: saline) was 92 % of control; the T/C (dose: 25.0 mg/kg/injection, schedule: Q04DX003 (ip), vehicle: saline) was 95 % of control. For the same compound, the T/C runs as follows: under setting [9], 90 % of control; under setting [7], 91 % of control; (dose: 50.0 mg/kg/injection, schedule: Q04DX003 (ip), vehicle: saline) 92 % of control.
`CC1CC=C(/C=N\NC(=O)c2ccc[n+](C)c2)C(C)O1` (stereo not given): the T/C reads like this: (dose: 50.0 mg/kg/injection, schedule: Q01DX009 (ip), vehicle: saline with Tween-80) 96 % of control; under setting [12], 96 % of control; (dose: 200.0 mg/kg/injection, schedule: Q01DX009 (ip), vehicle: saline with Tween-80) 93 % of control.
`CC(C)(C)NC(C1=CC(C)(C)c2ccccc2C1=O)c1ccccc1` (stereo not given): the T/C by setting is: under setting [1], 98 % of control; under setting [2], 110 % of control; under setting [3], 104 % of control; under setting [4], 102 % of control; under setting [5], 101 % of control; under setting [6], 102 % of control.
Take `CCOC(CNC(=O)c1cccc(S(=O)(=O)F)c1)OCC`: the T/C by setting is: (dose: 100.0 mg/kg/injection, schedule: Q04DX003 (ip), vehicle: saline + alcohol) 98 % of control; (dose: 200.0 mg/kg/injection, schedule: Q04DX003 (ip), vehicle: saline + alcohol) 96 % of control.
On to `Nc1ccc(-c2cc3ccccc3oc2=O)cc1`, for which the T/C by setting is: (dose: 6.25 mg/kg/injection, schedule: Q04DX002 (ip), vehicle: Klucel (hydroxypropylcellulose) (HPC)) 100 % of control and 119 % of control; (dose: 12.5 mg/kg/injection, schedule: Q04DX002 (ip), vehicle: Klucel (hydroxypropylcellulose) (HPC)) 92 % of control and 111 % of control; (dose: 25.0 mg/kg/injection, schedule: Q04DX002 (ip), vehicle: Klucel (hydroxypropylcellulose) (HPC)) 92 % of control and 102 % of control.
As to `CC(=O)Oc1ccc(Nc2c3ccccc3nc3ccccc23)cc1`, the T/C was 106 % of control under setting [13]; 116 % of control (dose: 44.0 mg/kg/injection, schedule: Q04DX003 (ip), vehicle: saline with Tween-80); 119 % of control (dose: 66.0 mg/kg/injection, schedule: Q04DX003 (ip), vehicle: saline with Tween-80); 181 % of control under setting [14]; 123 % of control (dose: 100.0 mg/kg/injection, schedule: Q04DX003 (ip), vehicle: saline with Tween-80); 116 % of control (dose: 150.0 mg/kg/injection, schedule: Q04DX003 (ip), vehicle: saline with Tween-80).
As to `C/C(=N/S(=O)(=O)c1ccc(C)cc1)OCCN(C)C`, the T/C was 100 % of control (dose: 3.0 mg/kg/injection, schedule: Q01DX009 (ip), vehicle: saline with Tween-80); 98 % of control (dose: 3.0 mg/kg/injection, schedule: Q04DX003 (ip), vehicle: saline with Tween-80); 95 % of control (dose: 6.0 mg/kg/injection, schedule: Q01DX009 (ip), vehicle: saline with Tween-80); 101 % of control (dose: 6.0 mg/kg/injection, schedule: Q04DX003 (ip), vehicle: saline with Tween-80); 90 % of control (dose: 12.5 mg/kg/injection, schedule: Q04DX003 (ip), vehicle: saline with Tween-80).
Regarding `CC(C)(C)OC(=O)NCCCCC(NC(=O)OCc1ccccc1)C(=O)O` (stereo not given), the T/C by setting is: under setting [13], 90 % of control; (dose: 50.0 mg/kg/injection, schedule: Q04DX002 (ip), vehicle: saline with Tween-80) 97 % of control; under setting [12], 89 % of control; under setting [14], 101 % of control.
As for `C=C(Br)CNC(=O)NN1CCOCC1`, the T/C (dose: 100.0 mg/kg/injection, schedule: Q01DX001 (ip), vehicle: Klucel (hydroxypropylcellulose) (HPC)) is 115 % of control; the T/C under setting [2] was 95 % of control; the T/C (dose: 200.0 mg/kg/injection, schedule: Q01DX001 (ip), vehicle: Klucel (hydroxypropylcellulose) (HPC)) is 111 % of control; the T/C under setting [4] was 98 % of control; the T/C (dose: 400.0 mg/kg/injection, schedule: Q01DX001 (ip), vehicle: Klucel (hydroxypropylcellulose) (HPC)) is 102 % of control; the T/C under setting [6] is 97 % of control.
With `CCCCCC(=O)c1ccc(O)cc1O`, the T/C by setting is: (dose: 12.5 mg/kg/injection, schedule: Q01DX009 (ip), vehicle: gum acacia) 104 % of control; (dose: 25.0 mg/kg/injection, schedule: Q01DX009 (ip), vehicle: gum acacia) 109 % of control; (dose: 50.0 mg/kg/injection, schedule: Q01DX009 (ip), vehicle: gum acacia) 93 % of control and 95 % of control; (dose: 100.0 mg/kg/injection, schedule: Q04DX003 (ip), vehicle: gum acacia) 95 % of control; (dose: 200.0 mg/kg/injection, schedule: Q04DX003 (ip), vehicle: gum acacia) 94 % of control.
Consider `Nc1ccn(C2CCCO2)c(=O)n1` (stereo not given), for which the T/C was 101 % of control under setting [9]; 95 % of control under setting [10]; 95 % of control (dose: 200.0 mg/kg/injection, schedule: Q01DX001 (ip), vehicle: saline); 95 % of control (dose: 400.0 mg/kg/injection, schedule: Q01DX001 (ip), vehicle: saline).
As for `O=P(c1ccccc1)(N1CCOCC1)N1CCOCC1`, the T/C is 94 % of control (dose: 75.0 mg/kg/injection, schedule: Q04DX003 (ip), vehicle: saline); 104 % of control (dose: 150.0 mg/kg/injection, schedule: Q04DX003 (ip), vehicle: saline); 110 % of control (dose: 300.0 mg/kg/injection, schedule: Q04DX003 (ip), vehicle: saline).
With `Nc1ncnc2c1c(-c1nn[nH]n1)cn2C1OC(CO)C(O)C1O` (stereo not given), the T/C (dose: 12.5 mg/kg/injection, schedule: Q01DX005 (ip), vehicle: saline) is 121 % of control; the T/C under setting [11] was 122 % of control; the T/C (dose: 50.0 mg/kg/injection, schedule: Q01DX005 (ip), vehicle: saline) was 108 % of control; the T/C under setting [7] is 98 % of control.
`CN(C)C(=S)[S][Sb]([S]C(=S)N(C)C)[c]1ccccc1`: the T/C was 96 % of control (dose: 100.0 mg/kg/injection, schedule: Q01DX001 (ip), vehicle: steriod suspending solution) and 96 % of control (dose: 200.0 mg/kg/injection, schedule: Q01DX001 (ip), vehicle: steriod suspending solution).
